Measurements from patent publication US9499550B2 (BRISTOL-MYERS SQUIBB COMPANY, priority 2012, dated 2016).
Where two headings read alike, the source gives them in different places.

Columns and labels:
[1] = test system: HCV genotype 1b (Con1) replicon in HUH-7 cells; assay: HCV replicon luciferase reporter assay, genotype 1b; type: cell-based; conditions: Hepatitis C virus, Huh-7, 72 h, 3 days incubation, read-out: LE_1b (EC50, range)
Method in brief: (§1)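 Replicon inhibition for both genotypes was measured as Renilla luciferase signal (EnduRen, 7.5 μM final, 2 h) after 3-day, 37° C exposure of replicon-bearing HUH-7 cells in 4% FCS DMEM, 0.5% DMSO. The 1b construct carries S1179I; the 1a H77 construct carries P1496L and S2204I. Twenty-point, 3-fold dilutions were fitted four-parametrically for EC50, and CC50 was taken from multiplexed Cell Titer-Blue.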

[2] = test system: HCV genotype 1a (H77 strain) replicon in HUH-7 cells; assay: HCV replicon luciferase reporter assay, genotype 1a; type: cell-based; conditions: Hepatitis C virus, Huh-7, 72 h, 3 days incubation, read-out: LE_1a (EC50, range)
Method in brief: as §1

[3] = HCV genotype 1b replicon luciferase
[4] = HCV genotype 1a replicon luciferase
[5] = HCV genotype 1b replicon luciferase assay, range class
[6] = HCV genotype 1a replicon luciferase assay, range class

| Structure (SMILES) | EC50 [1, 3] | EC50 [2, 4] | EC50 [1, 5] | EC50 [2, 6] |
| --- | --- | --- | --- | --- |
| CC[C@@H]1C[C@@H](C)CC/C=C\[C@@H]2C[C@@]2(C(=O)NS(=O)(=O)C2(C)CC2)NC(=O)[C@@H]2C[C@@H](Oc3nccc4cc(OC)c(F)cc34)CN2C(=O)[C@H]1NC(=O)OC(C)(C)C(C)(F)F [Compound 5434, 3,3-difluoro-2-methylbutan-2-yl((2R,6S,7R,9S,13aS,14aR,16aS,Z)-7-ethyl-2-((7-fluoro-6-methoxyisoquinolin-1-yl)oxy)-9-methyl-14a-(((1-methylcyclopropyl)sulfonyl)carbamoyl)-5,16-dioxo-1,2,3,5,6,7,8,9,10,11,13a,14,14a,15,16,16a-hexadecahydrocyclopropa[e]pyrrolo[1,2-a][1,4]diazacyclopentadecin-6-yl)carbamate] | 1.01 to 5 nM | 1.01 to 5 nM |  |  |
| COc1ccc2c(O[C@@H]3C[C@H]4C(=O)N[C@]5(C(=O)NS(=O)(=O)C6CC6)C[C@H]5/C=C\CC[C@@H](C)C[C@@H](C)[C@H](NC(=O)OC(C)(C)C(F)(F)F)C(=O)N4C3)nc(-c3ccc(OC(C)C)c(F)c3)cc2c1 [Compound 3064, 1,1,1-trifluoro-2-methylpropan-2-yl((2R,6S,7R,9R,13aS,14aR,16aS,Z)-14a-((cyclopropylsulfonyl)carbamoyl)-2-((3-(3-fluoro-4-isopropoxyphenyl)-6-methoxyisoquinolin-1-yl)oxy)-7,9-dimethyl-5,16-dioxo-1,2,3,5,6,7,8,9,10,11,13a,14,14a,15,16,16a-hexadecahydrocyclopropa[e]pyrrolo[1,2-a][1,4]diazacyclopentadecin-6-yl)carbamate] |  |  | < 5.46 nM | < 5.46 nM |
| COc1ccc2c(O[C@@H]3C[C@H]4C(=O)N[C@]5(C(=O)NS(=O)(=O)C6(CF)CC6)C[C@H]5/C=C\CC[C@@H](C)C[C@@H](C)[C@H](NC(=O)OC(C)(C)C(F)F)C(=O)N4C3)nc3c(c2c1)CCCO3 [Compound 6078, 1,1-difluoro-2-methylpropan-2-yl((2R,6S,7R,9R,13aS,14aR,16aS,Z)-14a-(((1-(fluoromethyl)cyclopropyl)sulfonyl)carbamoyl)-2-((9-methoxy-2,3-dihydro-1H-pyrano[2,3-c]isoquinolin-6-yl)oxy)-7,9-dimethyl-5,16-dioxo-1,2,3,5,6,7,8,9,10,11,13a,14,14a,15,16,16a-hexadecahydrocyclopropa[e]pyrrolo[1,2-a][1,4]diazacyclopentadecin-6-yl)carbamate] | 1.01 to 5 nM | 1.01 to 5 nM |  |  |
| COc1cc(F)cc2c(O[C@@H]3C[C@H]4C(=O)N[C@]5(C(=O)NS(=O)(=O)C6(CF)CC6)C[C@H]5/C=C\CC[C@@H](C)C[C@@H](C)[C@H](NC(=O)OC(C)(C)C)C(=O)N4C3)nccc12 [Compound 3174, tert-butyl ((2R,6S,7R,9R,13aS,14aR,16aS,Z)-2-((7-fluoro-5-methoxyisoquinolin-1-yl)oxy)-14a-(((1-(fluoromethyl)cyclopropyl)sulfonyl)carbamoyl)-7,9-dimethyl-5,16-dioxo-1,2,3,5,6,7,8,9,10,11,13a,14,14a,15,16,16a-hexadecahydrocyclopropa[e]pyrrolo[1,2-a][1,4]diazacyclopentadecin-6-yl)carbamate] |  |  | < 5.46 nM | < 5.46 nM |
| COc1ccc2c(O[C@@H]3C[C@H]4C(=O)N[C@]5(C(=O)NS(=O)(=O)C6(CF)CC6)C[C@H]5/C=C\CC[C@@H](C)C[C@@H](C)[C@H](NC(=O)OC(C)(C)C)C(=O)N4C3)nc(OC)cc2c1 [Compound 1125, tert-butyl ((2R,6S,7R,9R,13aS,14aR,16aS,Z)-2-((3,6-dimethoxyisoquinolin-1-yl)oxy)-14a-(((1-(fluoromethyl)cyclopropyl)sulfonyl)carbamoyl)-7,9-dimethyl-5,16-dioxo-1,2,3,5,6,7,8,9,10,11,13a,14,14a,15,16,16a-hexadecahydrocyclopropa[e]pyrrolo[1,2-a][1,4]diazacyclopentadecin-6-yl)carbamate] |  |  | < 5.46 nM | < 5.46 nM |
